Values joined by “and” are separate entries in the source; they are usually repeats but may differ in a detail not shown here. Identical values can stand only once. Like-named read-outs stand apart in the source and are kept apart here.
Experiments:
[1] = tested on: Mtb-infected J774 cells; settings: 10 μM, 24 hours, 5 days post-infection
[2] = tested on: CDC1551(rv1405c′::GFP) reporter Mtb strain; test: microbe, parasite or virus in culture; format: cell-based, Mycobacterium tuberculosis; settings: for NPA - rv1405c'::GFP, average: Fig 1D
[3] = tested on: CDC1551(rv2390c′::GFP) reporter Mtb strain, response to high [Cl−]; test: microbe, parasite or virus in culture; format: cell-based, Mycobacterium tuberculosis
[4] = tested on: macrophage phagosomal proteolytic activity in BMDMs; test: Phagosomal maturation assay, DQ-BSA/AF594 beads (proteolysis readout); format: cell-based, mouse; settings: for DQ-BSA/AF594, Average: average of 4 replicates
Procedure: Carboxyfluorescein (pH readout), DQ-BSA/Alexa Fluor 594 (AF594) (proteolysis readout), and BAC/AF594 (Cl^− readout) beads were generated essentially as previously described, except that 10,10′-Bis[3-carboxylpropyl]-9,9′-biacridinium dinitrate di-NHS ester (BAC-SE) was purchased from emp Biotech LLC. BMDMs were isolated from C57BL/6J mice (The Jackson Laboratory) and maintained as described above. A quantity of 2 × 10^5 macrophages/well were seeded into 96-well clear bottom black plates and utilized in assays 1 to 2 days post-seeding. […] Assay buffer consisted of PBS (pH 7.2), supplemented with 5% FBS, 5 mM dextrose, 1 mM CaCl2, 2.7 mM KCl, and 0.5 mM MgCl2 in the case of assays with the carboxyfluorescein or DQ-BSA/AF594 beads. For assays with the BAC/AF594 beads, assay buffer consisted of PBS (pH 7.2), supplemented with 5% FBS, 5 mM dextrose, 1 mM calcium acetate, 1.35 mM K2SO4, and 0.5 mM MgSO4 [9]. Sensor beads at approximately 2 to 5 beads/macrophage in appropriate assay buffer were finally added, with data acquisition on a Biotek Synergy H1 microplate reader with bottom read signal detection started within 2 to 3 minutes of bead addition. Excitation/emission wavelengths were 450 nm/520 nm and 490 nm/520 nm for carboxyfluorescein, 490 nm/520 nm for DQ-BSA, 365 nm/505 nm for BAC, and 590 nm/617 nm for AF594. Each experiment was run with a total of 3 to 5 replicate wells/condition, with temperature maintained at 37°C throughout the assay. Wells were read every 2 minutes for 2 hours for the carboxyfluorescein bead assays, every 2 minoutes for 4 hours for the DQ-BSA/AF594 bead assays, and every 1 minute for 2 hours for the BAC/AF594 bead assays. Analyses of the results were performed as previously described.

[5] = Human plasma protein binding; format: in vitro ADME

CCSc1ncc(CN2CCN(c3nc4ccccc4o3)CC2)cn1 [C6, 2-(4-((2-(ethylthio)pyrimidin-5-yl)methyl)piperazin-1-yl)benzo[d]oxazole]
Accumulation in Mtb-infected J774 cells [1]: confirmed C6 accumulation
NPA - rv1405c'::GFP, average ([2]; 0.0390625 µM): 91.7667%
NPA - rv1405c'::GFP, average ([2]; 0.078125 µM): 104.333%
NPA - rv1405c'::GFP, average ([2]; 0.15625 µM): 97.8333%
NPA - rv1405c'::GFP, average ([2]; 0.3125 µM): 95.1667%
NPA - rv1405c'::GFP, average ([2]; 0.625 µM): 93.7333%
NPA - rv1405c'::GFP, average ([2]; 1.25 µM): 103.333%
NPA - rv1405c'::GFP, average ([2]; 2.5 µM): 124.667%
NPA - rv1405c'::GFP, average ([2]; 5 µM): 141%
NPA - rv1405c'::GFP, average ([2]; 10 µM): 137.333%
NPA - rv1405c'::GFP, average ([2]; 20 µM): 161.5%
activity at 10 µM ([2]; Mycobacterium tuberculosis, read-out: rv1405c'::GFP secondary assay NPA% at 10 µM compound): 137 ± 15%
activity at 20 µM ([2]; Mycobacterium tuberculosis, read-out: rv1405c'::GFP secondary assay NPA% at 20 µM compound): 162 ± 3.5%
NPA - rv2390c'::GFP, average ([3]; 0.0390625 µM, Fig 1C): 83.3%
NPA - rv2390c'::GFP, average ([3]; 0.078125 µM, Fig 1C): 86.0333%
NPA - rv2390c'::GFP, average ([3]; 0.15625 µM, Fig 1C): 80.7667%
NPA - rv2390c'::GFP, average ([3]; 0.3125 µM, Fig 1C): 92.0333%
NPA - rv2390c'::GFP, average ([3]; 0.625 µM, Fig 1C): 91.4667%
NPA - rv2390c'::GFP, average ([3]; 1.25 µM, Fig 1C): 105.667%
NPA - rv2390c'::GFP, average ([3]; 2.5 µM, Fig 1C): 116.333%
NPA - rv2390c'::GFP, average ([3]; 5 µM, Fig 1C): 113%
NPA - rv2390c'::GFP, average ([3]; 10 µM, Fig 1C): 126.667%
NPA - rv2390c'::GFP, average ([3]; 20 µM, Fig 1C): 131%
activity at 10 µM ([3]; Mycobacterium tuberculosis, 144 h, pH 6.4, […], DMSO positive control = 100%, read-out: Primary screen rv2390c'::GFP NPA%): 164%
activity at 10 µM ([3]; Mycobacterium tuberculosis, 144 h, 10 µM, pH 6.4, 250 mM NaCl, 6 days, read-out: rv2390c'::GFP validation assay NPA% at 10 µM compound): 127 ± 1.5%
activity at 20 µM ([3]; Mycobacterium tuberculosis, 144 h, 20 µM, pH 6.4, 250 mM NaCl, 6 days, read-out: rv2390c'::GFP validation assay NPA% at 20 µM compound): 131 ± 3.6%
AC50 ([3]; Mycobacterium tuberculosis, 144 h, pH 6.4, 250 mM NaCl, 6 days, Fig 1C, read-out: AC50 (activatory concentration, 50%), rv2390c′::GFP): 1800 nM
Effect on macrophage phagosomal proteolytic activity ([4]; 10 μM, uninfected BMDMs): did not affect
DQ-BSA/AF594, single replicates (Rep 1-4) ([4]; Time 0 minutes): 0.14 and 0.1347 and 0.1424 and 0.1346
DQ-BSA/AF594, single replicates (Rep 1-4) ([4]; Time 2 minutes): 0.135 and 0.1275 and 0.1349 and 0.128
DQ-BSA/AF594, single replicates (Rep 1-4) ([4]; Time 4 minutes): 0.1412 and 0.1359 and 0.1424 and 0.1318
DQ-BSA/AF594, Average ([4]; time 0 minutes): 0.1379
DQ-BSA/AF594, Average ([4]; time 2 minutes): 0.1314
DQ-BSA/AF594, Average ([4]; time 4 minutes): 0.1378
DQ-BSA/AF594, single replicates (Rep 1-4) ([4]; time 6 minutes): 0.1434 and 0.1398 and 0.1395 and 0.1344
DQ-BSA/AF594, Average ([4]; time 6 minutes): 0.1393
DQ-BSA/AF594, single replicates (Rep 1-4) ([4]; time 8 minutes): 0.1391 and 0.1428 and 0.1447 and 0.1317
DQ-BSA/AF594, Average ([4]; time 8 minutes): 0.1396
DQ-BSA/AF594, single replicates (Rep 1-4) ([4]; time 10 minutes): 0.146 and 0.145 and 0.1422 and 0.1332
DQ-BSA/AF594, Average ([4]; time 10 minutes): 0.1416
DQ-BSA/AF594, single replicates (Rep 1-4) ([4]; time 12 minutes): 0.1443 and 0.1415 and 0.1428 and 0.1313
DQ-BSA/AF594, Average ([4]; time 12 minutes): 0.14
DQ-BSA/AF594, single replicates (Rep 1-4) ([4]; time 14 minutes): 0.1461 and 0.1457 and 0.1422 and 0.1412
DQ-BSA/AF594, Average ([4]; time 14 minutes): 0.1438
DQ-BSA/AF594, single replicates (Rep 1-4) ([4]; time 16 minutes): 0.1457 and 0.1504 and 0.1476 and 0.1404
DQ-BSA/AF594, Average ([4]; time 16 minutes): 0.146
DQ-BSA/AF594, single replicates (Rep 1-4) ([4]; time 18 minutes): 0.152 and 0.1539 and 0.1536 and 0.1434
DQ-BSA/AF594, Average ([4]; time 18 minutes): 0.1507
DQ-BSA/AF594, single replicates (Rep 1-4) ([4]; time 20 minutes): 0.1544 and 0.1557 and 0.1584 and 0.1468
DQ-BSA/AF594, Average ([4]; time 20 minutes): 0.1538
DQ-BSA/AF594, single replicates (Rep 1-4) ([4]; time 22 minutes): 0.1647 and 0.1693 and 0.1637 and 0.1551
DQ-BSA/AF594, Average ([4]; time 22 minutes): 0.1632
DQ-BSA/AF594, single replicates (Rep 1-4) ([4]; time 24 minutes): 0.178 and 0.18 and 0.1857 and 0.1719
DQ-BSA/AF594, Average ([4]; time 24 minutes): 0.1789
DQ-BSA/AF594, single replicates (Rep 1-4) ([4]; time 26 minutes): 0.2064 and 0.2113 and 0.205 and 0.1944
DQ-BSA/AF594, Average ([4]; time 26 minutes): 0.2043
DQ-BSA/AF594, single replicates (Rep 1-4) ([4]; time 28 minutes): 0.2506 and 0.2446 and 0.2477 and 0.2339
DQ-BSA/AF594, Average ([4]; time 28 minutes): 0.2442
DQ-BSA/AF594, single replicates (Rep 1-4) ([4]; time 30 minutes): 0.3139 and 0.29 and 0.311 and 0.2857
DQ-BSA/AF594, Average ([4]; time 30 minutes): 0.3002
fraction unbound [5]: 0.008

Reference: article PMC8351955, “Targeting Mycobacterium tuberculosis response to environmental cues for the development of effective antitubercular drugs” (PLoS Biology, 2021)
